# Data published in US6337317B1, “Antimicrobial peptides and methods of use thereof” (priority 2000, dated 2002).
# Where a SMILES comes first, the peptide text is derived from it.
# Legend:
# Human Red Blood Cells = assay: Hemolytic assay; type: cell-based
# Description: The toxicity of invention peptides can be assessed using a hemolytic assay in which the ability of the peptides to lyse human red blood cells is assessed (Zhang et al. (1999) Biochemistry 38:8102-8111; and Examples section).
# Hemolytic activity of invention peptides was tested against human red blood cells. Freshly collected human blood treated with heparin was centrifuged to remove the buffy coat, and the erythrocytes thereby obtained were washed three times in saline (0.85% NaCl). Serial dilutions of the peptides in saline were prepared in round-bottomed microtiter plates using total volumes of 100 μl. Red blood cells were diluted with saline to 1/25 of a packed cell volume, and 50 μl of cells were added to each well. Plates, while rocking, were incubated at 37° C., and the concentration of the peptide required for lysis after 4 h was taken as the minimal hemolytic concentration.
# E. coli DC2 = type: cell-based, Escherichia coli; details: E. coli DC2 (outer membrane deficient mutant)
# Description: (§1) The biological activity of the peptides can be determined by standard methods known to those of skill in the art, such as a “minimal inhibitory concentration” (MIC) assay (see Wu and Hancock (1999) J. Biol Chem. 274:29-35 and Examples section). A MIC assay allows the determination of the lowest concentration of peptide that inhibits the multiplication and growth of mircoorganisms. Changes in the microorganism population are assessed by measuring the optical density (OD) of the population in broth or medium. Peptide MIC's can be determined for a variety of micoorganisms under a variety of conditions. Another assay for the biological activity of the peptides is a “fractional inhibitory concentration” (FIC) assay. This assay is especially useful for determining synergistic effects between the peptides of the invention, and between invention peptides and other compounds such as known antibiotics. A FIC assay employs the strategy of a MIC assay with additional variable(s), e.g., known antibiotics. […] The FIC is calculated by looking at the impact of an antibiotic on the MIC of the peptide and the reciprocal relationship. […] As used herein, FIC can be determined as follows: […]
# (§2) MIC Assay p The minimum inhibitory concentrations of (MIC) of several invention peptides were determined using methods described elsewhere (Wu and Hancock, (1999) J. Biol Chem. 274:29-35). […]
# E. coli KF130 = type: cell-based, Escherichia coli
# Description: as §1, §2
# P. aeruginosa M2 = assay: P. aeruginosa infection in neutropenic mouse model; type: in vivo; details: neutropenic CD-1 mice
# Description: Invention peptides were assayed for their ability to protect against P. aeruginosa infection in a neutropenic mouse mode. Female CD-1 mice, made neutropenic by three injections of cyclophosphamide (see Gough et al., (1996) Infect. Immun. 64:4922-4927) were injected intraperitoneally with a 100% lethal dose of P. aeruginosa M2 (approximately 200 organisms). Thirty minutes later, mice were injected intraperitoneally with invention peptides (200 μg/100 μl) Survival was assessed 24 to 72 hours later.
# [1] = Dansyl polymyxin B displacement assay (binding affinity for LPS); parameters: species or system Escherichia coli
# Description: To determine whether invention peptides are able to interact with the LPS of Gram-negative bacterial outer membrane, the binding affinity of peptide for LPS was determined using a dansyl polymyxin B displacement assay (Moore et al. (1986) Antimicrobial Agents Chemother. 29:496-500). The assay uses dansyl polymyxin, a cationic probe that is highly fluorescent only when bound and LPS isolated from E. coli. UB1005. […] Maximal displacement of LPS was expressed as a percentage where 100% displacement of dansyl polymyxin B was taken as that observed with polymyxin B.
smiles,measurement,setting,value
"CC(C)[C@@H]1NC(=O)[C@H](CCCNC(=N)N)NC(=O)[C@H](Cc2ccccc2)NC(=O)[C@@H](NC(=O)[C@H](Cc2c[nH]c3ccccc23)NC(=O)[C@H](CCCNC(=N)N)NC(=O)[C@@H](N)CCCNC(=N)N)CSSC[C@@H](C(=O)N[C@@H](CCCNC(=N)N)C(N)=O)NC(=O)[C@H](CCCCN)NC(=O)[C@H](CCCNC(=N)N)NC(=O)[C@H](Cc2ccc(O)cc2)NC(=O)[C@@H]2CSSC[C@H](NC1=O)C(=O)N[C@@H](Cc1ccc(O)cc1)C(=O)N[C@@H](CCCNC(=N)N)C(=O)NCC(=O)N[C@@H](Cc1ccccc1)C(=O)N2 [Polyphemusin I] (HELM PEPTIDE1{R.R.W.C.F.R.V.C.Y.R.G.F.C.Y.R.K.C.R.[am]}$PEPTIDE1,PEPTIDE1,4:R3-17:R3|PEPTIDE1,PEPTIDE1,8:R3-13:R3$$$V2.0; N-terminus and C-terminus assumed)",minimal hemolytic concentration (printed under MIC head),"Human Red Blood Cells; Human Red Blood Cells, lysis after 4 h at 37° C.",21.3 µg/mL
same,hemolytic activity,Human Red Blood Cells; red blood cells,show hemolytic activity
same,MIC,E. coli DC2,0.125 µg/mL
same,MIC,E. coli KF130,0.125 µg/mL
same,Mean Time to Death,P. aeruginosa M2; 200 μg peptide intraperitoneally 30 min after infection,52 h
same,"Survival (%), P. aeruginosa infection","P. aeruginosa M2; 200 μg peptide intraperitoneally, groups of 5 mice, assessed 24 to 72 hours",20%
same,Imax,"[1]; maximal displacement, 100% = that observed with polymyxin B",85%
same,IC50,"[1]; peptide concentration reducing bound dansyl polymyxin B (10 μM) by 50% of maximal displacement, read-out: I50",4.8 µM
